Test results reported in paper PMC10914731, “Homo-BacPROTAC-induced degradation of ClpC1 as a strategy against drug-resistant mycobacteria” (Nature Communications, 2024).
≈ marks a conversion by molar mass, not a printed value. Where “and” joins values, the source holds several entries; their conditions need not be identical. Equal values may be shown once. Read-outs that look alike come from different tables or passages of the source.

What was measured:
[1] = tested on: Mtb (moxR) FNDR-M1; test: microbe, parasite or virus in culture; assay type: cell-based
[2] = tested on: Mycobacterium abscessus; test: microbe, parasite or virus in culture; assay type: cell-based
[3] = tested on: Msm 700084; test: microbe, parasite or virus in culture; assay type: cell-based
[4] = tested on: Mtb (katG del) ATCC 35822; test: microbe, parasite or virus in culture; assay type: cell-based
[5] = Microsomal stability, human; assay type: in vitro ADME; details: human, microsomes, pH 7.5
Summary of the method: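 Compound at 1 µmol/l incubated with 0.5 mg/ml liver microsomes in 100 mM Tris-HCl pH 7.5, 6.5 mM MgCl2, 1 mM NADPH, 37 °C; acetonitrile-quenched at multiple time points, measured by HPLC-MS/MS. First-order half-lives converted to clearance as %Qh via well-stirred liver model.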

[6] = tested on: Staphylococcus aureus; test: MIC ESKAPES panel, Staphylococcus aureus; assay type: cell-based
Description: Minimum inhibitory concentration (MIC) against ESKAPES panel of Gram positive and Gram negative pathogens (Enterococcus faecium, Staphylococcus aureus, Klebsiella pneumoniae, Acinetobacter baumannii, Pseudomonas aeruginosa, Enterobacter cloacae and Salmonella typhimurium [ESKAPES panel]) were determined at the FNDR by the standard broth dilution method [CLSI, M100]. […] Mueller Hinton broth (MHB) medium was used to grow ESKAPES panel strains. The individual cultures were added as 200 μL (inoculum of 3–7 × 10^5 cfu/ml) to the respective assay plates in each well to all columns, except the media control (200 μL of medium). […] The assay plates were incubated at 37 °C, and the results were noted on the 2nd day as turbidometric readout. The clear wells indicated inhibition of growth, while the turbid wells indicated uninhibited growth.

[7] = tested on: Mtb ATCC 35825; test: microbe, parasite or virus in culture; assay type: cell-based
[8] = tested on: Mycobacterium fortuitum; test: microbe, parasite or virus in culture; assay type: cell-based
[9] = in vivo; assay type: in vivo, BALB/cAnNCrl mice; details: male, BALB/cAnNCrl, mouse, in vivo, po
Description: The in-life experimental procedures were conducted in strict compliance with German and European animal welfare legislation in an AAALAC-accredited facility. Male BALB/cAnNCrl mice (Charles River Laboratories Research Models and Services, 97633 Sulzfeld, Germany) were used. Animals were 9 weeks old at dosing with a body weight of 21.6–24.3 g. Animals were delivered free of pathogens according to FELASA recommendations with a health certificate provided by the breeder. Upon receipt, the state of health and sex was checked. Animals acclimatized for at least 5 days before the commencement of the in-life phase. During acclimation, animals were group-housed in individually ventilated cages, on birch wood granulate bedding with species-specific enrichment (nesting material, mouse igloo, gnawing wood). During experimental conduct, animals were housed in conventional cages with elevated grid floors. Grid floor was used to avoid contamination with test item material excreted via urine and feces and subsequent reuptake during fur grooming. No bedding and enrichment were provided except a cage divider, which can be used as a shelter. Animals always had unlimited access to food and water and received a pelleted, total pathogen-free maintenance diet and tap drinking water, sterilized by filter.
On the day before dosing, test item(s) were suspended in kleptose (20% in WFI) under continuous stirring (3.0 mg/ml). Following 2 min vortexing and 1 h stirring, the formulation was sonicated at 60 °C for 30 min and stirred at ambient temperature overnight. Before dosing, the formulation was vortexed for 2 min followed by ultraturrax treatment for 2 min.
Male BALB/cAnNCrl mice (n = 3 per test item and administration route) received a bolus dose of the formulated test item(s) (1 mg/kg iv, 30 mg/kg po) at t = 0 h, and whole blood samples were collected subsequently (35 µl at 0.1 (iv) / 0.25 (po), 0.5, 1, 2, 4, 6 h; 600 µl at sacrifice after 24 h). Animals were euthanized by exsanguination in deep isoflurane anesthesia. Whole blood samples were immediately stored on ice at about 4 °C. Plasma was separated by centrifugation at approximately 10,000 × g for 5 m at +4 °C. Centrifugation of each blood sample was started within 10 m after collection. A single aliquot of at least 15 µL of plasma was prepared and immediately stored at −20 ± 5 °C.
Sample proteins were precipitated with ACN (1 + 12, v/v) containing internal standard, and supernatants analyzed by quantitative UPLC-MS/MS: Phenomenex Luna Omega C18, 2.1 × 50 mm, 1.6 µm, 40 °C, gradient between 10% - 90% ACN with 0.1% formic acid. LogD determination: Lipophilicity of the test items, expressed as chromLogD7.5, was assessed by measuring their chromatographic retention times on C18-material. The chromatographic retention versus logD7.5 values of a series of thirteen n-alkan-2-ones (2-butanone – 2-hexadecanone) served as lipophilicity calibration.

[10] = Experiment 2, three replicate columns
[11] = single well replicates, listed as 12 (UdSBI-4377)

In the case of `COC(c1ccccc1)C1NC(=O)C(C)NC(=O)C(CC(C)CO)N(C)C(=O)C(Cc2cn(C)c3ccccc23)NC(=O)C(Cc2cn(CCCCCn3cc(CC4NC(=O)C(CC(C)C)N(C)C(=O)C(C(C)C)NC(=O)C(C(OC)c5ccccc5)NC(=O)C(C)NC(=O)C(CC(C)CO)N(C)C(=O)C(Cc5cn(C)c6ccccc56)NC4=O)nn3)nn2)NC(=O)C(CC(C)C)N(C)C(=O)C(C(C)C)NC1=O` (stereo not shown) [Compound 12], the MIC ([1]; M. tuberculosis FNDR-M1, single well replicates) is reported as 0.195 µM (≈ 0.386 µg/mL), the MIC ([1]; Mycobacterium tuberculosis, M. tuberculosis FNDR-M1, single well replicates) is reported as 0.195 µM (≈ 0.386 µg/mL) and the MIC ([1]; Mycobacterium tuberculosis, Mtb (moxR) FNDR-M1, mean ± SD, n = 3 well replicates) is reported as 0.2 µM (≈ 0.396 µg/mL). The “MIC (µg/ml) Mycobacterium abscessus” value [2, 10] was over 99.02 µg/mL, the MIC ([2]; Experiment 2, three replicate columns, read-out: MIC (µM) Mycobacterium abscessus) was over 50 µM and the MIC ([2]; Mycobacteroides abscessus, Experiment 1, read-out: MIC Mycobacterium abscessus) was > 50 µM and > 99 µg/mL. The MIC ([2]; Mycobacteroides abscessus, Experiment 2, three replicate columns, read-out: MIC (µM) Mycobacterium abscessus) was over 50 µM, the MIC ([2]; Mycobacteroides abscessus, Experiment 2, three replicate columns, read-out: MIC (µg/ml) Mycobacterium abscessus) was over 99 µg/mL and the MIC ([2]; Mycobacteroides abscessus, mean ± SD, read-out: MIC Mycobacterium abscessus) was over 50 µM. It also gave an MIC ([3]; Mycolicibacterium smegmatis, 700084, single determinations, read-out: Msm 700084 MIC) of over 50 µM, an MIC ([3]; Mycolicibacterium smegmatis, 700084, read-out: MIC Msm 700084) of over 50 µM and an MIC ([4]; M. tuberculosis ATCC 35822, single well replicates) of 0.098 µM (≈ 0.194 µg/mL). For the same compound, the MIC ([4]; Mycobacterium tuberculosis, ATCC35822, M. tuberculosis ATCC 35822, single well replicates) was 0.098 µM (≈ 0.194 µg/mL), the MIC ([4]; Mycobacterium tuberculosis, ATCC35822, Mtb (katG del) ATCC 35822, mean ± SD, n = 3 well replicates) was 0.1 µM (≈ 0.198 µg/mL) and the “Microsomal Stability Human” value [5] was under 24 %Qh. For the same compound, the “Microsomal Stability Human QH” value [5] was under 24.4%, the MIC ([6]; Gram-Positive Bacteria, replicates 1-3, listed as 12 (UdSBI-4377)) was over 50 µM and the MIC ([6]; Staphylococcus aureus, Gram positive, n = 3 well replicates) was over 50 µM. The MIC ([6]; Staphylococcus aureus, Gram-Positive Bacteria, replicates 1-3) was over 99 µg/mL, the MIC ([7]; Mycobacterium tuberculosis, ATCC35825, mean, n = 2 well replicates) was < 0.1 µM and < 0.2 µg/mL and the MIC ([7]; Mycobacterium tuberculosis, ATCC35825, single well replicates) was < 0.19 µg/mL and < 0.1 µM. The MIC [7, 11] was under 0.1 µM, the “MIC Mtb ATCC 35825” value [7, 11] was under 0.19 µg/mL and the MIC ([8]; Experiment 1, listed as 12 (UdSBI-4377), read-out: MIC Mycobacterium fortuitum) was over 50 µM. For the same compound, the “MIC (µg/ml) Mycobacterium fortuitum” value [8, 10] was over 99.02 µg/mL, the MIC ([8]; Experiment 2, three replicate columns, read-out: MIC (µM) Mycobacterium fortuitum) was over 50 µM and the MIC ([8]; Mycolicibacterium fortuitum, Experiment 1, read-out: MIC Mycobacterium fortuitum) was over 99 µg/mL. The MIC ([8]; Mycolicibacterium fortuitum, Experiment 2, three replicate columns, read-out: MIC (µM) Mycobacterium fortuitum) was over 50 µM, the MIC ([8]; Mycolicibacterium fortuitum, Experiment 2, three replicate columns, read-out: MIC (µg/ml) Mycobacterium fortuitum) was over 99 µg/mL and the MIC ([8]; Mycolicibacterium fortuitum, mean ± SD, read-out: MIC Mycobacterium fortuitum) was over 50 µM. It also gave an AUC0-inf/Dose [9] of 62.6 h*nM/nmol/kg, an AUC0-t/Dose [9] of 45.5 h*nM/nmol/kg and a BA [9] of 0.7%. It also gave a Cmax/Dose [9] of 2.56 nM/nmol/kg.
